Assay results taken from patent US9234000B2, “Benzylamine derivatives as inhibitors of plasma kallikrein” (KalVista Pharmaceuticals Limited, priority 2011, dated 2016).

Legend:
[1] = target: Human KLK1 (Homo sapiens (Human), UniProt P06870); test: Determination of the IC50 for KLK1; type: biochemical; settings: Human KLK1, 37° C., substrate H-DVal-Leu-Arg-AFC; Table 13
Experimental: Determination of the IC50 for KLK1
(§1) KLK1 inhibitory activity in vitro was determined using standard published methods (see e.g. Johansen et al., Int. J. Tiss. Reac. 1986, 8, 185; Shori et al., Biochem. Pharmacol., 1992, 43, 1209; Stürzebecher et al., Biol. Chem. Hoppe-Seyler, 1992, 373, 1025). Human KLK1 (Callbiochem) was incubated at 37° C. with the fluorogenic substrate H-DVal-Leu-Arg-AFC and various concentrations of the test compound. Residual enzyme activity (initial rate of reaction) was determined by measuring the change in optical absorbance at 410 nm and the IC50 value for the test compound was determined.

[2] = target: Human plasma kallikrein (Homo sapiens (Human), UniProt P03952); test: Determination of the IC50 for plasma kallikrein; type: biochemical; settings: 37° C., substrate H-DPro-Phe-Arg-AFC, read-out: IC50 (human PKal)
Experimental: Determination of the IC50 for Plasma Kallikrein
as §1, with “Plasma kallikrein” for “KLK1”, “Stiirzebecher” for “Stürzebecher”, “plasma kallikrein (Protogen)” for “KLK1 (Callbiochem)”, “H-DPro-Phe-Arg-AFC” for “H-DVal-Leu-Arg-AFC”

Chain of Human plasma kallikrein (P03952 391-638): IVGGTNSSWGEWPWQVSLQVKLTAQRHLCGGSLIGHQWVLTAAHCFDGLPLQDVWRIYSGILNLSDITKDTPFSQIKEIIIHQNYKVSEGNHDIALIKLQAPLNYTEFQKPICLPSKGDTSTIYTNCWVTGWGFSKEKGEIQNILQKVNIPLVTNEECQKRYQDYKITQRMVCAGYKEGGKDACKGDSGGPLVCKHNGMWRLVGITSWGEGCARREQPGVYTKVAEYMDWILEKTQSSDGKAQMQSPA
Chain of Human plasma kallikrein (P03952 20-390 partner): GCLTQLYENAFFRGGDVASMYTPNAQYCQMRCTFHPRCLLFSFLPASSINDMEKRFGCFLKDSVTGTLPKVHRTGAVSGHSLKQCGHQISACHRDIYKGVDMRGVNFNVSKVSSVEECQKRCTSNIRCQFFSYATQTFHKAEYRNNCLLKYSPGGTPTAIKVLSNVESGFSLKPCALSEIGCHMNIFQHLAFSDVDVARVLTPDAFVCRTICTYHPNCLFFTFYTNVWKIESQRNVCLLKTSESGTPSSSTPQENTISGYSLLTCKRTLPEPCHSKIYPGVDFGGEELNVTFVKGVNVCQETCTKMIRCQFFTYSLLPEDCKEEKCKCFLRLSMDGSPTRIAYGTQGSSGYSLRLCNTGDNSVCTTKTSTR
Chain of Human KLK1 (P06870 25-262): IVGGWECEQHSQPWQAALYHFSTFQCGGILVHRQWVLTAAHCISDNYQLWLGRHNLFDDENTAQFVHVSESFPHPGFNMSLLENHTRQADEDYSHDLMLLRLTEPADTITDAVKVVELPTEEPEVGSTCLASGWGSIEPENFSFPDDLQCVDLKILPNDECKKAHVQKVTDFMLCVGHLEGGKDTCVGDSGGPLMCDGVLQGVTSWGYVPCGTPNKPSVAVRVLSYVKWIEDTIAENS

| Compound | IC50 [1] [nM] | IC50 [2] [nM] |
| --- | --- | --- |
| CCCCCCNC(=O)N[C@H](Cc1ccc(OCC)cc1)C(=O)N[C@@H](Cc1ccccc1)C(=O)NCc1ccc(CN)cc1 [Example 78, (R)-N-[(S)-1-(4-Aminomethyl-benzylcarbamoyl)-2-phenyl-ethyl]-3-(4-ethoxy-phenyl)-2-(3-hexyl-ureido)-propionamide] | > 10000 | 10000 |
| CCOc1ccc(C[C@@H](NC(=O)c2ccc(OC(F)(F)F)cc2)C(=O)N[C@@H](Cc2ccccc2)C(=O)NCc2ccc(CN)cc2)cc1 [Example 80, N-[(R)-1-[(S)-1-(4-Aminomethyl-benzylcarbamoyl)-2-phenyl-ethylcarbamoyl]-2-(4-ethoxy-phenyl)-ethyl]-4-trifluoromethoxy-benzamide] | > 10000 | 398 |
| CCOc1ccc(C[C@@H](NC(=O)c2cc(C)nn2C)C(=O)N[C@@H](Cc2ccccc2)C(=O)NCc2ccc(CN)cc2)cc1 [Example 82, 2,5-Dimethyl-2H-pyrazole-3-carboxylic acid [(R)-1-[(S)-1-(4-aminomethyl-benzylcarbamoyl)-2-phenyl-ethylcarbamoyl]-2-(4-ethoxy-phenyl)-ethyl]-amide] | > 10000 | 539 |
| CCOc1ccc(C[C@@H](NC(=O)c2cc3ccccc3s2)C(=O)N[C@@H](Cc2ccccc2)C(=O)NCc2ccc(CN)cc2)cc1 [Example 83, Benzo[b]thiophene-2-carboxylic acid[(R)-1-[(S)-1-(4-aminomethyl-benzylcarbamoyl)-2-phenyl-ethylcarbamoyl]-2-(4-ethoxy-phenyl)-ethyl]-amide] | > 10000 | 254 |
| CCOc1ccc(C[C@@H](NC(=O)CCc2ccccc2)C(=O)N[C@@H](Cc2ccccc2)C(=O)NCc2ccc(CN)cc2)cc1 [Example 86, (S)-N-(4-Aminomethyl-benzyl)-2-[(R)-3-(4-ethoxy-phenyl)-2-(3-phenyl-propionylamino)-propionylamino]-3-phenyl-propionamide] | > 10000 | 423 |
| CCOc1ccc(C[C@@H](NC(=O)CCCc2ccccc2)C(=O)N[C@@H](Cc2ccccc2)C(=O)NCc2ccc(CN)cc2)cc1 [Example 87, N-[(R)-1-[(S)-1-(4-Aminomethyl-benzylcarbamoyl)-2-phenyl-ethylcarbamoyl]-2-(4-ethoxy-phenyl)-ethyl]-4-phenyl-butyramide] | 3400 | 755 |
| CCOc1ccc(C[C@@H](NC(=O)c2ccccc2Cl)C(=O)N[C@@H](Cc2ccccc2)C(=O)NCc2ccc(CN)cc2)cc1 [Example 89, N-[(R)-1-[(S)-1-(4-Aminomethyl-benzylcarbamoyl)-2-phenyl-ethylcarbamoyl]-2-(4-ethoxy-phenyl)-ethyl]-2-chloro-benzamide] | 3700 | 99 |
| CCOc1ccc(C[C@@H](NC(=O)c2cccc(C(F)(F)F)c2)C(=O)N[C@@H](Cc2ccccc2)C(=O)NCc2ccc(CN)cc2)cc1 [Example 90, N-[(R)-1-[(S)-1-(4-Aminomethyl-benzylcarbamoyl)-2-phenyl-ethylcarbamoyl]-2-(4-ethoxy-phenyl)-ethyl]-3-trifluoromethyl-benzamide] | > 10000 | 276 |
| CCOc1ccc(C[C@@H](NC(=O)CNC(=O)c2ccccc2)C(=O)N[C@@H](Cc2ccccc2)C(=O)NCc2ccc(CN)cc2)cc1 [Example 98, N-{[(R)-1-[(S)-1-(4-Aminomethyl-benzylcarbamoyl)-2-phenyl-ethylcarbamoyl]-2-(4-ethoxy-phenyl)-ethylcarbamoyl]-methyl}-benzamide] | 5100 | 576 |
| CCOc1ccc(C[C@@H](NS(=O)(=O)Cc2ccccc2)C(=O)N[C@@H](Cc2ccccc2)C(=O)NCc2ccc(CN)cc2)cc1 [Example 100, (R)-N-[(S)-1-(4-Aminomethyl-benzylcarbamoyl)-2-phenyl-ethyl]-3-(4-ethoxy-phenyl)-2-phenylmethanesulfonylamino-propionamide] | 2900 | 474 |
| CCOc1ccc(C[C@@H](NC(=O)CNS(=O)(=O)c2ccc(C)cc2)C(=O)N[C@@H](Cc2ccccc2)C(=O)NCc2ccc(CN)cc2)cc1 [Example 101, (S)-N-(4-Aminomethyl-benzyl)-2-{(R)-3-(4-ethoxy-phenyl)-2-[2-(toluene-4-sulfonylamino)-acetylamino]-propionylamino}-3-phenyl-propionamide] | > 10000 | 1110 |
| CCOc1ccc(C[C@@H](NC(=O)Nc2ccc(Cl)cc2)C(=O)N[C@@H](Cc2ccccc2)C(=O)NCc2ccc(CN)cc2)cc1 [Example 102, (R)-N-[(S)-1-(4-Aminomethyl-benzylcarbamoyl)-2-phenyl-ethyl]-2-[3-(4-chloro-phenyl)-ureido]-3-(4-ethoxy-phenyl)-propionamide] | 9000 | 10000 |
| CCOc1ccc(C[C@@H](NC(=O)N(CC)Cc2ccccc2)C(=O)N[C@@H](Cc2ccccc2)C(=O)NCc2ccc(CN)cc2)cc1 [Example 103, (R)-N-[(S)-1-(4-Aminomethyl-benzylcarbamoyl)-2-phenyl-ethyl]-2-(3-benzyl-3-ethyl-ureido)-3-(4-ethoxy-phenyl)-propionamide] | > 10000 | 10000 |
| CCOc1ccc(C[C@@H](NC(=O)c2ccc(C)nc2)C(=O)N[C@@H](Cc2ccccc2)C(=O)NCc2ccc(CN)cc2)cc1 [Example 104, N-[(R)-1-[(S)-1-(4-Aminomethyl-benzylcarbamoyl)-2-phenyl-ethylcarbamoyl]-2-(4-ethoxy-phenyl)-ethyl]-6-methyl-nicotinamide] | > 10000 | 159 |
| CCOc1ccc(C[C@@H](NC(=O)c2cccnc2C)C(=O)N[C@@H](Cc2ccccc2)C(=O)NCc2ccc(CN)cc2)cc1 [Example 105, N-[(R)-1-[(S)-1-(4-Aminomethyl-benzylcarbamoyl)-2-phenyl-ethylcarbamoyl]-2-(4-ethoxy-phenyl)-ethyl]-2-methyl-nicotinamide] | > 10000 | 185 |
| CCOc1ccc(C[C@@H](NC(=O)c2ccc(Cl)nc2Cl)C(=O)N[C@@H](Cc2ccccc2)C(=O)NCc2ccc(CN)cc2)cc1 [Example 106, N-[(R)-1-[(S)-1-(4-Aminomethyl-benzylcarbamoyl)-2-phenyl-ethylcarbamoyl]-2-(4-ethoxy-phenyl)-ethyl]-2,6-dichloro-nicotinamide] | 8400 | 256 |
| CCOc1ccc(C[C@@H](NC(=O)c2cnc(Cl)c(Cl)c2)C(=O)N[C@@H](Cc2ccccc2)C(=O)NCc2ccc(CN)cc2)cc1 [Example 107, N-[(R)-1-[(S)-1-(4-Aminomethyl-benzylcarbamoyl)-2-phenyl-ethylcarbamoyl]-2-(4-ethoxy-phenyl)-ethyl]-5,6-dichloro-nicotinamide] | 7500 | 133 |
| CCOc1ccc(C[C@@H](NC(=O)c2cc(F)nc(F)c2F)C(=O)N[C@@H](Cc2ccccc2)C(=O)NCc2ccc(CN)cc2)cc1 [Example 108, N-[(R)-1-[(S)-1-(4-Aminomethyl-benzylcarbamoyl)-2-phenyl-ethylcarbamoyl]-2-(4-ethoxy-phenyl)-ethyl]-2,3,6-trifluoro-isonicotinamide] | > 10000 | 232 |
| CCOc1ccc(C[C@@H](NC(=O)CC(F)(F)F)C(=O)N[C@@H](Cc2ccccc2)C(=O)NCc2ccc(CN)cc2)cc1 [Example 109, N-[(R)-1-[(S)-1-(4-Aminomethyl-benzylcarbamoyl)-2-phenyl-ethylcarbamoyl]-2-(4-ethoxy-phenyl)-ethyl]-3,3,3-trifluoro-propionamide] | > 10000 | 155 |
| CCOc1ccc(C[C@@H](NC(=O)c2cc(C)nc(Cl)c2)C(=O)N[C@@H](Cc2ccccc2)C(=O)NCc2ccc(CN)cc2)cc1 [Example 110, N-[(R)-1-[(S)-1-(4-Aminomethyl-benzylcarbamoyl)-2-phenyl-ethylcarbamoyl]-2-(4-ethoxy-phenyl)-ethyl]-2-chloro-6-methyl-isonicotinamide] | > 10000 | 598 |
| CCOc1ccc(C[C@@H](NC(=O)c2sc(C)nc2C)C(=O)N[C@@H](Cc2ccccc2)C(=O)NCc2ccc(CN)cc2)cc1 [Example 111, 2,4-Dimethyl-thiazole-5-carboxylic acid [(R)-1-[(S)-1-(4-aminomethyl-benzylcarbamoyl)-2-phenyl-ethylcarbamoyl]-2-(4-ethoxy-phenyl)-ethyl]-amide] | > 10000 | 58 |
| CCOc1ccc(C[C@@H](NC(=O)c2cnc(C)s2)C(=O)N[C@@H](Cc2ccccc2)C(=O)NCc2ccc(CN)cc2)cc1 [Example 112, 2-Methyl-thiazole-5-carboxylic acid [(R)-1-[(S)-1-(4-aminomethyl-benzylcarbamoyl)-2-phenyl-ethylcarbamoyl]-2-(4-ethoxy-phenyl)-ethyl]-amide] | > 10000 | 298 |
| CCOc1ccc(C[C@@H](NC(=O)c2nc(C)oc2C)C(=O)N[C@@H](Cc2ccccc2)C(=O)NCc2ccc(CN)cc2)cc1 [Example 113, 2,5-Dimethyl-oxazole-4-carboxylic acid [(R)-1-[(S)-1-(4-aminomethyl-benzylcarbamoyl)-2-phenyl-ethylcarbamoyl]-2-(4-ethoxy-phenyl)-ethyl]-amide] | > 10000 | 455 |
